Experimental data published in patent US5380732A, “Pesticidal compounds” (priority 1986, dated 1995).

Key:
Format in all cases: in vivo
Musca domestica = test: spray onto 20 female Musca, mortality after 2 days (Example C); details: 25° C.
Protocol: (§1) The compounds of the invention were tested by dissolving them in acetone (5%) and then diluting in water/`Synperonic` (94.5%/0.5%) to give a water emulsion. ("Synperonic" is a R.T.M. of I.C.I. plc and is nonylphenol ethoxylate in aqueous solution to give 27%; available from B.D.H., Poole, Dorset, England). The solution was then used to treat the following insects.
20 female Musca were contained in a cardboard cylinder with gauze over either end. Solution containing the compound was sprayed onto the insects so enclosed and mortality assessed after 2 days at 25° C.

Spodoptera littoralis [1] = test: injection into fifth instar Spodoptera littoralis larvae (Example D); details: 5% solution in DMSO/acetone (50:50), 1.0 ul injected, 2 days, 25° C.
Protocol: The compounds of the invention were also tested by dissolving them in DMSO/acetone (50:50) to give a 5% solution, 1.0 ul of which was injected into fifth instar Spodoptera littoralis larvae. Mortality was assessed after 2 days at 25° C.

Sitophilus granarius = test: adults on treated wheat, mortality after 6 days, Sitophilus (Example C); details: 25° C.
Protocol: as §1
(§2) 20 adult Sitophilus and Tribolium were added to 10 g wheat which had been previously treated with 2 ml of the solution containing the compound. Mortality was assessed after 6 days at 25° C.

Plutella xylostella [2] = test: discs of chinese cabbage infested with second instar Plutella larvae sprayed (Example C); details: 2 days, 25° C.
Protocol: as §1
or Discs of chinese cabbage infested with c8 second instar Plutella larvae were sprayed with the solution containing the compound. Mortality was assessed after 2 days at 25° C.

Myzus persicae = test: adult Myzus on chinese cabbage leaf disc sprayed (Example C); details: 2 days, 25° C.
Protocol: as §1
10 adult Myzus were placed on a leaf disc of chinese cabbage. 24 hours later the disc was sprayed with the solution containing the compound. Mortality was assessed after 2 days at 25° C.

Tetranychus urticae = test: leaf discs of infested french bean sprayed (Example C); details: 2 days, 25° C.
Protocol: as §1
Leaf discs of infested french bean were sprayed with the solution containing the compound. Mortality was assessed after 2 days at 25° C.

T. castaneum = test: track-spray of acetone-water solution, T. castaneum (Example A); details: acetone-water (5:95)
Protocol: (§3) The compound of Example 1 was administered in acetone-water (5:95) by track-spray to a range of insect and acarine species, giving the following results.

Plutella xylostella [3] = test: fourth instar Plutella larvae sprayed and added to sprayed chinese cabbage leaf (Example C); details: 2 days, 25° C.
Protocol: as §1
7 Fourth instar Plutella larvae were sprayea with the solution containing the compound and added to a chinese cabbage leaf which had been similarly sprayed and left to dry. Mortality was assessed after 2 days at 25° C.

S. granarius = test: track-spray of acetone-water solution, S. granarius (Example A); details: acetone-water (5:95)
Protocol: as §3

C. quinquefasciatus = test: track-spray of acetone-water solution, C. quinquefasciatus (Example A); details: acetone-water (5:95)
Protocol: as §3

A. aegypti (larvae) = test: track-spray of acetone-water solution, A. aegypti larvae (Example A); details: acetone-water (5:95)
Protocol: as §3

M. domestica = test: track-spray of acetone-water solution, M. domestica (Example A); details: acetone-water (5:95)
Protocol: as §3

Tribolium castaneum = test: adults on treated wheat, mortality after 6 days, Tribolium (Example C); details: at 1000 ppm, 25° C.
Protocol: as §1, §2

Blatella germanica = test: activity against Blatella germanica with piperonyl butoxide; details: at up to 10 μg per insect (+piperonyl butoxide)
Spodoptera littoralis [4] = test: sprayed leaves infested with newly hatched Spodoptera larvae (Example C); details: at 200 ppm, +pip but, 3 days
Protocol: as §1
Uninfested leaves were sprayed with the test solution containing the compound (+pip but) and left to dry. These were then infested with 10 newly hatched larvae. Mortality was assessed after 3 days.

[5] = test system: Diabrotica undecimpunctata; test: 2nd instar larvae and their food sprayed on filter paper (Example C); details: at 1000 ppm; 2nd instar larvae, 2 days
Protocol: as §1
2nd instar larvae and their food were sprayed on filter paper with the solution containing the compound. Activity was assessed at 2 days.

CC(C)CNC(=O)C=CC=CCCCCCCCOc1ccc(C(F)(F)F)cn1 [Example 6]
active (mortality) (Musca domestica; at 1000 ppm): active

CC(C)CNC(=O)/C=C/C=C/CCCCCCCOc1cc(C(F)(F)F)nc(C(F)(F)F)c1 [Example 35, (2E,4E) N-Isobutyl 12-(2',6'-bistrifluoromethyl-4'-pyridyloxy)-dodeca-2,4-dienamide]
active (mortality) (Spodoptera littoralis [1]): active
active (mortality) (Musca domestica; at 1000 ppm): active
active (mortality) (Sitophilus granarius): active
active (mortality) (Plutella xylostella [2]; at 200 ppm): active

CCC(C)NC(=O)C=C(C)C=CCCCCCCCOc1ncccc1Cl (stereo not shown) [Example 13]
active (mortality) (Myzus persicae; at 200 ppm): active

CCC(C)NC(=O)/C=C/C=C/CCCCCCCOc1ccncc1 (stereo not shown) [Example 30, (2E,4E) -N-(1-methylpropyl) 12-(4'-pyridyloxy)dodeca-2,4-dienamide]
active (mortality) (Myzus persicae; at 1000 ppm): active

CC(C)CNC(=O)/C=C/C=C/CCCCCCCOc1cccc(C(F)(F)F)n1 [Example 3, (2E,4E) N-isobutyl 12-(6trifluoromethyl-2'-pyridyloxy) dodeca-2,4-dienamide]
active (mortality) (Tetranychus urticae; at 1000 ppm): active
active (mortality) (Musca domestica; at 200 ppm): active

CC(C=CCCCCCCCOc1cccnc1Br)=CC(=O)NCC(C)C [Example 29]
active (mortality) (Spodoptera littoralis [1]): active
active (mortality) (Tetranychus urticae; at 1000 ppm): active

CC(C)CNC(=O)C=CC=CCCCCCCCOc1cccc(Cl)n1 [Example 1, N-Isobutyl 12-(6'-chloro-2'-pyridyloxy)dodeca-2,4-dienamide]
LD50 (T. castaneum): > 1000 ppm
active (mortality) (Tetranychus urticae; at 1000 ppm): active
active (mortality) (Musca domestica; at 200 ppm): active
active (mortality) (Plutella xylostella [3]; at 1000 ppm): active
LD50 (S. granarius): > 1000 ppm
LD50 (C. quinquefasciatus): > 1000 ppm
LD50 (A. aegypti (larvae)): > 1000 ppm
active (mortality) (Myzus persicae; at 200 ppm): active
LD50 (M. domestica): about 200 ppm

CC(C)CNC(=O)C=CC=CCCCCCOc1cccc(Cl)n1 [Example 14]
active (mortality) (Myzus persicae; at 1000 ppm): active

CC(C)CNC(=O)C=CC=CCCCCCCCOc1ccccn1 [Example 15]
active (mortality) (Myzus persicae; at 200 ppm): active

CC(C)CNC(=O)C=CC=CCCCCCCCOc1nc(C(F)(F)F)ccc1C(F)(F)F [Example 20]
active (mortality) (Plutella xylostella [2]; at 200 ppm): active

CC(C=CCCCCCCCOc1cccc(C(F)(F)F)n1)=CC(=O)NCC(C)C [Example 8]
active (mortality) (Spodoptera littoralis [1]): active
active (mortality) (Tetranychus urticae; at 200 ppm): active
active (mortality) (Musca domestica; at 1000 ppm): active
active (mortality) (Plutella xylostella [3]; at 200 ppm): active

CC(C)CNC(=O)C=CC=CCCCCCCCOc1ncccc1Cl [Example 12]
active (mortality) (Myzus persicae; at 1000 ppm): active

CC(C)CNC(=O)/C=C/C=C/CCCCCCCOc1cc(C(F)(F)F)cc(C(F)(F)F)n1 [Example 19, (2E,4E) N-isobutyl 12-(4',6'-bistrifluoromethyl-2'-pyridyloxy) -dodeca-2,4-dienamide]
active (mortality) (Musca domestica; at 200 ppm): active
active (mortality) (Sitophilus granarius): active
active (mortality) (Plutella xylostella [2]; at 200 ppm): active

CC(C=CCCCCCCCOc1cccc(Cl)n1)=CC(=O)NCC(C)C [Example 9]
active (mortality) (Tetranychus urticae; at 200 ppm): active
active (mortality) (Musca domestica; at 1000 ppm): active
active (mortality) (Plutella xylostella [3]; at 200 ppm): active

C=C(C)CNC(=O)C=CC=CCCCCCCCOc1cc(C(F)(F)F)cc(C(F)(F)F)n1 [Example 21]
active (mortality) (Tetranychus urticae; at 1000 ppm): active
active (mortality) (Musca domestica; at 200 ppm): active
active (mortality) (Sitophilus granarius): active

CC(C)C(C)NC(=O)C=CC=CCCCCCCCOc1cncc(Cl)c1 (stereo not shown) [Example 24]
active (mortality) (Plutella xylostella [3]; at 1000 ppm): active

CC(C=CCCCCCCCOc1cc(C(F)(F)F)cc(C(F)(F)F)n1)=CC(=O)NCC(C)C [Example 23]
active (mortality) (Tetranychus urticae; at 1000 ppm): active
active (mortality) (Musca domestica; at 1000 ppm): active

CC(C)CNC(=O)C=CC=CCCCCCCCOc1ccc(Cl)cn1 [Example 17]
active (mortality) (Tribolium castaneum): active
active (mortality) (Tetranychus urticae; at 1000 ppm): active
active (mortality) (Musca domestica; at 200 ppm): active
active (mortality) (Plutella xylostella [3]; at 200 ppm): active

CC(C=CCCCCCCCOc1cccnc1Cl)=CC(=O)NC(C)C(C)C (stereo not shown) [Example 27]
active (mortality) (Tetranychus urticae; at 1000 ppm): active

CC(/C=C/CCCCCCCOc1ncc(C(F)(F)F)cc1Cl)=C(/F)C(=O)NCC(C)C [Example 39, (2Z,4E)N-Isobutyl 2-fluoro-3-methyl-12-(3-chloro-5-trifluoromethyl-2-pyridyloxy) dodeca-2,4-dienamide]
active (Blatella germanica): active

CC(C)CNC(=O)C=CC=CCCCCCCCOc1ncccc1C(F)(F)F [Example 7]
active (mortality) (Spodoptera littoralis [1]): active
active (mortality) (Plutella xylostella [3]; at 1000 ppm): active

CC(/C=C/CCCCCCCOc1ncc(C(F)(F)F)cc1C(F)(F)F)=C(/F)C(=O)NCC(C)C [Example 38, (2Z,4E)N-Isobutyl 2-fluoro-3-methyl-12-(3,5-bistrifluoromethyl-2-pyridyloxy)dodeca-2,4-dienamide]
active (mortality) (Spodoptera littoralis [4]): active
active (mortality) (Tetranychus urticae; at 200 ppm): active
active (mortality) (Musca domestica; at 1000 ppm): active
active (mortality) (Plutella xylostella [3]; at 40 ppm): active
active (Blatella germanica): active
active [5]: active

(2E,4E) N-1-Methylpropyl 12-(4'-chloro-2-pyrimidyloxy) dodeca-2,4-dienamide and (2E,4E) N-1-Methylpropyl 12-(2-chloro-4'-pyrimidyloxy) -dodeca-2,4-dienamide [Example 34]
active (mortality) (Tetranychus urticae; at 1000 ppm): active

CC(/C=C/CCCCCCOCc1cccc(Cl)n1)=C\C(=O)NCC(C)C [Example 36, (2E,4E) N-Isobutyl 11-(6'-chloro-2'-pyridylmethoxy) -3-methylundeca-2,4-dienamide]
active (mortality) (Tetranychus urticae; at 1000 ppm): active
active (mortality) (Plutella xylostella [2]; at 1000 ppm): active

CC(C)CNC(=O)C=CC=CCCCCCCCOc1cncc(Cl)c1 [Example 25]
active (mortality) (Tetranychus urticae; at 200 ppm): active

CC(C)CNC(=O)/C=C/C=C/CCCCCCCOc1ccncc1 [Example 31, (2E,4E) N-Isobutyl 12-(4'-pyridyloxy)-dodeca-2,4-dienamide]
active (mortality) (Sitophilus granarius): active
active (mortality) (Myzus persicae; at 1000 ppm): active

CC(C=CCCCCCCCOc1ccc(Cl)cn1)=CC(=O)NCC(C)C [Example 18]
active (mortality) (Tetranychus urticae; at 1000 ppm): active
active (mortality) (Musca domestica; at 1000 ppm): active
active (mortality) (Plutella xylostella [3]; at 1000 ppm): active
active (mortality) (Myzus persicae; at 1000 ppm): active

CCC(C)NC(=O)C=CC=CCCCCCCCOc1cccc(C(F)(F)F)n1 (stereo not shown) [Example 4]
active (mortality) (Tetranychus urticae; at 1000 ppm): active
active (mortality) (Musca domestica; at 200 ppm): active

CCC(C)NC(=O)C=CC=CCCCCCCCOc1ccccn1 (stereo not shown) [Example 16]
active (mortality) (Musca domestica; at 1000 ppm): active
active (mortality) (Myzus persicae; at 200 ppm): active

CC1(CNC(=O)/C=C/C=C/CCCCCCCOc2cc(C(F)(F)F)cc(C(F)(F)F)n2)OCCO1 [Example 22, (2E,4E) N-(2-methyl-1,3-dioxalan-2-yl)-methyl 12-(4',6'-bistrifluoromethyl-2-pyridyloxy)-dodeca-2,4-dienamide]
active (mortality) (Musca domestica; at 200 ppm): active
active (mortality) (Sitophilus granarius): active

CC(C)CNC(=O)C=CC=CCCCCCCCOc1cccnc1Br [Example 28]
active (mortality) (Tetranychus urticae; at 1000 ppm): active

(2E/Z,4E) N-Isobutyl 3-methyl-12-(4-chloro-2'-pyrimidyloxy) -dodeca-2,4-dienamide and (2E/Z,4E) N-Isobutyl 3-methyl-12-(2-chloro-4'-pyrimidyloxy) -dodeca-2,4-dienamide [Example 33]
active (mortality) (Myzus persicae; at 1000 ppm): active

CC(C=CCCCCCCCOc1cc(C(F)(F)F)cc(Cl)n1)=CC(=O)NCC(C)C [Example 11]
active (mortality) (Spodoptera littoralis [1]): active
active (mortality) (Tetranychus urticae; at 1000 ppm): active
active (mortality) (Musca domestica; at 1000 ppm): active
active (mortality) (Plutella xylostella [3]; at 1000 ppm): active

(2E,4E) N-Isobutyl 12-(4'-chloro-2'-pyrimidyloxy)-dodeca-2,4-dienamide and (2E,4E) N-Isobutyl 12-(2'-chloro-4-pyrimidyloxy)-dodeca-2,4-dienamide [Example 32]
active (mortality) (Tetranychus urticae; at 1000 ppm): active

CC(C)CNC(=O)C=CC=CCCCCCCCOc1cc(C(F)(F)F)cc(Cl)n1 [Example 10]
active (mortality) (Musca domestica; at 1000 ppm): active
active (mortality) (Sitophilus granarius): active
